Test results as given in article PMC9136103 (The Journal of Biological Chemistry, 2022).

How the values were obtained:
[1] = molecular target: T1, human ornithine aminotransferase (hOAT) (Homo sapiens, UniProt P04181); assay: stopped-flow transient-state kinetics, purified enzyme (Kd not determined); format: biochemical
T1 construct: gene OAT; t-hOAT expressed as MBP fusion, MBP tag removed
T1 sequence (P04181 26-439 limits assumed): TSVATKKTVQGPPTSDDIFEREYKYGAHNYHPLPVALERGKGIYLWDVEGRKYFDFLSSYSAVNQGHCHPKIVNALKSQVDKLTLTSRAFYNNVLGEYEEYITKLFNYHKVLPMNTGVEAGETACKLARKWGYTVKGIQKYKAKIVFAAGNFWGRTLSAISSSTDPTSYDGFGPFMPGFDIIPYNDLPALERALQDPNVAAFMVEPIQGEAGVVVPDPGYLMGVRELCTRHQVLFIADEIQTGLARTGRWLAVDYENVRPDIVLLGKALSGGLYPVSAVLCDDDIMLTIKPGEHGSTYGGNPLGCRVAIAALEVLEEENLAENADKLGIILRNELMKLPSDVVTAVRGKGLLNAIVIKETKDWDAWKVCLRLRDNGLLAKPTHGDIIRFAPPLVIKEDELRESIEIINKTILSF

[2] = molecular target: T1, human ornithine aminotransferase (hOAT); assay: crystal structure by soaking (~[…] Å); stopped-flow kinetics Kd; format: biochemical
[3] = molecular target: T1, human ornithine aminotransferase (hOAT); assay: crystal structure by soaking (~[…] Å); UV-Vis titration Kd; format: binding
[4] = molecular target: T1, human ornithine aminotransferase (hOAT); assay: stopped-flow transient-state kinetics, purified enzyme; format: biochemical; settings: read-out: Dissociation constant (Kd)

## NCC[C@H](N)C(=O)O [DABA, L-2,4-diaminobutyric acid]
[1]
  klim/Kd: 0.249 ± 0.006 M⁻¹ s⁻¹

## NCCCCC(=O)O [AVA, 5-aminovaleric acid]
[2]
  Kd: 735 ± 78 µM

## NCCCC(=O)O [GABA, γ-aminobutyric acid]
[3]
  Kd: 110 ± 15 µM

## NCCC[C@H](N)C(=O)O [L-Orn, L-ornithine]
[4]
  Kd: 4700 ± 290 µM
